Assay [1] has as its system Staphylococcus aureus. Kind of assay: Antibacterial activity against Staphylococcus aureus ATCC 25930 after 24 hrs by serial dilution method. In kind it is functional. The settings on record: ATCC 25930, 24 h.
Assay [2] has as its system Klebsiella pneumoniae. Kind of assay: Antibacterial activity against Klebsiella pneumoniae ATCC 16425 after 24 hrs by serial dilution method. In kind it is functional. Particulars: ATCC 16425, 24 h.
Assay [3] relates to Bacillus subtilis. Kind of assay: Antibacterial activity against Bacillus subtilis ATCC 530 after 24 hrs by serial dilution method. In kind it is functional. Particulars: ATCC 530, 24 h.
Assay [4] concerns Escherichia coli. Kind of assay: Antibacterial activity against Escherichia coli ATCC 26032 after 24 hrs by serial dilution method. In kind it is functional. The settings on record: ATCC 26032, 24 h.
Assay [5] relates to Salmonella typhi. Kind of assay: Antibacterial activity against Salmonella typhi ATCC 25021 after 24 hrs by serial dilution method. In kind it is functional, Salmonella enterica subsp. enterica serovar Typhi. Particulars: Salmonella enterica, ATCC 25021, 24 h.
Assay [6] deals with Bacillus subtilis. Kind of assay: Antibacterial activity against Bacillus subtilis ATCC 530 at 200 ug/ml after 24 hrs by serial dilution method. In kind it is functional, organism-based.
Assay [7] deals with Cryptococcus neoformans. The assay is described as follows: Antifungal activity against Cryptococcus neoformans ATCC 3235 after 72 to 96 hrs by serial dilution method. In kind it is functional.
The subject of assay [8] is Rhizopus. The assay is described as follows: Antifungal activity against Rhizopus species ATCC 2842 after 72 to 96 hrs by serial dilution method. In kind it is functional.
The subject of assay [9] is Aspergillus flavus. Kind of assay: Antifungal activity against Aspergillus flavus ATCC 525 after 72 to 96 hrs by serial dilution method. In kind it is functional.
Assay [10] has as its system Candida albicans. The assay is described as follows: Antifungal activity against Candida albicans ATCC 3430 after 72 to 96 hrs by serial dilution method. In kind it is functional.
Assay [11] relates to Aspergillus niger. The assay is described as follows: Antifungal activity against Aspergillus niger ATCC 635 after 72 to 96 hrs by serial dilution method. In kind it is functional.
Assay [12] concerns Aspergillus niger. The assay is described as follows: Antifungal activity against Aspergillus niger ATCC 635 at 200 ug/ml after 72 to 96 hrs by serial dilution method. In kind it is functional, organism-based.

The values below come from ChEMBL document CHEMBL1268977, “Efficient synthesis, spectral analysis and antimicrobial studies of nitrogen and sulfur containing spiro heterocycles from 2,4-diaryl-3-azabicyclo[3.3.1]nonan-9-ones” (2010).

≈ marks a conversion by molar mass, not a printed value. Calls of active or inactive are those of the source. No cut-off for these calls is given here.

In the case of `CN[C@@H]1[C@H](O[C@H]2[C@H](O[C@H]3[C@H](O)[C@@H](O)[C@H](N=C(N)N)[C@@H](O)[C@@H]3N=C(N)N)O[C@@H](C)[C@]2(O)C=O)O[C@@H](CO)[C@H](O)[C@H]1O` [STREPTOMYCIN], the minimum inhibitory concentration (MIC) – broadly, the least concentration at which growth counts as inhibited – in assay [1] was 50 µg/mL (≈ 86 µM); in assay [2], 25 µg/mL (≈ 43 µM); in [3], 12.5 µg/mL (≈ 21.5 µM); in assay [4] it was 12.5 µg/mL (≈ 21.5 µM); in [5], 50 µg/mL (≈ 86 µM).

Regarding `CCC(=O)NC1=NN(C(=O)CC)C2(S1)C1CCCC2C(c2ccc(OC)cc2)N(C(=O)CC)C1c1ccc(OC)cc1` (stereo not given), in [6], the inhibition entry was “inactive”. In addition, the MIC in assay [7] was found to be 50 µg/mL (≈ 84.4 µM); in assay [1] it was 25 µg/mL (≈ 42.2 µM); in [8], 100 µg/mL (≈ 169 µM); in assay [2], 25 µg/mL (≈ 42.2 µM); in assay [9], 100 µg/mL (≈ 169 µM); in assay [10], 25 µg/mL (≈ 42.2 µM). The MIC was determined as 50 µg/mL (≈ 84.4 µM) in [4], 25 µg/mL (≈ 42.2 µM) in [5] and 25 µg/mL (≈ 42.2 µM) in [11].

`CC(=O)NC1=NN(C(C)=O)C2(S1)C1CCCC2C(c2cccc(F)c2)NC1c1cccc(F)c1` (stereo not given): the MIC in assay [7] was 25 µg/mL (≈ 51.6 µM); in assay [1], 50 µg/mL (≈ 103 µM); in assay [8] it was 12.5 µg/mL (≈ 25.8 µM); in [2] it was 6.25 µg/mL (≈ 12.9 µM); in assay [9] it was 6.25 µg/mL (≈ 12.9 µM); in [10] it was 25 µg/mL (≈ 51.6 µM). Besides, the MIC stood at 25 µg/mL (≈ 51.6 µM) in assay [3], 6.25 µg/mL (≈ 12.9 µM) in assay [4], 6.25 µg/mL (≈ 12.9 µM) in [5] and 25 µg/mL (≈ 51.6 µM) in [11].

Turning to `CC(=O)NC1=NN(C(C)=O)C2(S1)C1CCCC2C(c2ccc(C)cc2)NC1c1ccc(C)cc1` (stereo not given), the MIC in assay [7] was 50 µg/mL (≈ 105 µM); in assay [1], 25 µg/mL (≈ 52.4 µM); in assay [8] it was 25 µg/mL (≈ 52.4 µM); in [2], 12.5 µg/mL (≈ 26.2 µM); in assay [9], 12.5 µg/mL (≈ 26.2 µM); in assay [10] it was 25 µg/mL (≈ 52.4 µM). In addition, the MIC in [3] is 12.5 µg/mL (≈ 26.2 µM); in assay [4], 100 µg/mL (≈ 210 µM); in [5] it was 100 µg/mL (≈ 210 µM); in [11], 50 µg/mL (≈ 105 µM).

`CCC(=O)NC1=NN(C(=O)CC)C2(S1)C1CCCC2C(c2ccc(Cl)cc2)NC1c1ccc(Cl)cc1` (stereo not given): the MIC in assay [7] is 25 µg/mL (≈ 45.8 µM); in assay [1], 200 µg/mL (≈ 367 µM); in [8] it was 12.5 µg/mL (≈ 22.9 µM); in assay [2], 100 µg/mL (≈ 183 µM); in assay [9], 50 µg/mL (≈ 91.7 µM); in assay [10], 12.5 µg/mL (≈ 22.9 µM). Besides, the MIC turned out to be 12.5 µg/mL (≈ 22.9 µM) in assay [3], 25 µg/mL (≈ 45.8 µM) in assay [4], 12.5 µg/mL (≈ 22.9 µM) in assay [5] and 12.5 µg/mL (≈ 22.9 µM) in assay [11].

As to `CCC(=O)N(C1=NN(C(=O)CC)C2(S1)C1CCCC2C(c2ccccc2Cl)NC1c1ccccc1Cl)c1ccccc1` (stereo not given), the MIC was determined as 200 µg/mL (≈ 322 µM) in assay [7]; 6.25 µg/mL (≈ 10.1 µM) in [1]; 100 µg/mL (≈ 161 µM) in assay [8]; 25 µg/mL (≈ 40.2 µM) in assay [2]; 50 µg/mL (≈ 80.4 µM) in assay [9]; 50 µg/mL (≈ 80.4 µM) in assay [10]. Moreover, the MIC stood at 50 µg/mL (≈ 80.4 µM) in assay [3], 50 µg/mL (≈ 80.4 µM) in assay [4], 25 µg/mL (≈ 40.2 µM) in [5] and 50 µg/mL (≈ 80.4 µM) in assay [11].

Consider `CC(=O)N(C1=NN(C(C)=O)C2(S1)C1CCCC2C(c2ccc(Cl)cc2)N(C(C)=O)C1c1ccc(Cl)cc1)c1ccccc1` (stereo not given), for which the MIC in assay [7] was 50 µg/mL (≈ 78.7 µM); in [1], 12.5 µg/mL (≈ 19.7 µM); in [8] it was 12.5 µg/mL (≈ 19.7 µM); in [2], 50 µg/mL (≈ 78.7 µM); in [9], 200 µg/mL (≈ 315 µM); in [10], 100 µg/mL (≈ 157 µM). The figures for the MIC in [3], in assay [4] and in assay [5] were 25 µg/mL (≈ 39.3 µM), 25 µg/mL (≈ 39.3 µM) and 12.5 µg/mL (≈ 19.7 µM), respectively. Besides, the inhibition result in assay [12] is “inactive”.

On to `CC(=O)NC1=NN(C(C)=O)C2(S1)C1CCCC2C(c2ccccc2Cl)NC1c1ccccc1Cl` (stereo not given), for which the minimal inhibitory concentration (MIC) came out at 50 µg/mL (≈ 96.6 µM) in assay [7]; 12.5 µg/mL (≈ 24.2 µM) in assay [1]; 12.5 µg/mL (≈ 24.2 µM) in assay [8]; 25 µg/mL (≈ 48.3 µM) in assay [2]; 12.5 µg/mL (≈ 24.2 µM) in assay [9]; 12.5 µg/mL (≈ 24.2 µM) in assay [10]. Besides, the MIC in [3], in assay [4] and in [5] was 12.5 µg/mL (≈ 24.2 µM) each time. Besides, in assay [12], the inhibition entry was “inactive”.

As to `COc1ccc(C2C3CCCC(C(c4ccc(OC)cc4)N2C(C)=O)C32SC(NC(C)=O)=NN2C(C)=O)cc1` (stereo not given), the MIC in assay [7] stood at 25 µg/mL (≈ 45.4 µM); in [1], 25 µg/mL (≈ 45.4 µM); in assay [8], 100 µg/mL (≈ 182 µM); in [2], 25 µg/mL (≈ 45.4 µM); in [9] it was 12.5 µg/mL (≈ 22.7 µM); in assay [10], 25 µg/mL (≈ 45.4 µM). In addition, the MIC in [3], in assay [4] and in assay [5] was 50 µg/mL (≈ 90.8 µM) in each case. For the same molecule, the inhibition result in [12] is “inactive”.
